Test results taken from publication PMC6102642, “Effect of Noncanonical Amino Acids on Protein–Carbohydrate Interactions: Structure, Dynamics, and Carbohydrate Affinity of a Lectin Engineered with Fluorinated Tryptophan Analogs” (ACS Chemical Biology, 2018).

What was measured:
Format in all cases: binding
Conditions in all cases: SD
[1] = biological target: T1, RSL (Ralstonia solanacearum, UniProt A0A0S4TLR1); assay: biochemical
T1 construct: gene E7Z57_08365

[2] = biological target: T2, RSL[5FW]
T2 construct: all seven Trp replaced by 5-fluorotryptophan (86% of protein 7/7 labeled); from pQE80L-RSL in E. coli BWEC47; homotrimer

[3] = biological target: T3, RSL[7FW]
T3 construct: all seven Trp replaced by 7-fluorotryptophan (84% of protein 7/7 labeled); from pQE80L-RSL in E. coli BWEC47; homotrimer

[4] = biological target: T4, RSL[4FW]
T4 construct: all seven Trp replaced by 4-fluorotryptophan (85% of protein 7/7 labeled); from pQE80L-RSL in E. coli BWEC47; homotrimer

Structure (SMILES) | Kd [1] | Kd [2] | Kd [3] | Kd [4]
CO[C@@H]1O[C@@H](C)[C@@H](O)[C@@H](O)[C@@H]1O [αMeFuc, methyl α-L-fucopyranoside] | 1.21 µM | 0.889 µM | 1.11 µM | 1.73 µM
CC(=O)N[C@H]1[C@H](O[C@H]2[C@@H](O)[C@@H](CO)OC(O)[C@@H]2O)O[C@H](CO)[C@@H](O[C@@H]2O[C@H](CO)[C@H](O)[C@H](O)[C@H]2O[C@@H]2O[C@@H](C)[C@@H](O)[C@@H](O)[C@@H]2O)[C@@H]1O (stereo partly drawn) [HType2, blood group H type 2 antigen tetrasaccharide, Fucα1–2Galβ1–4GlcNAcβ1–3Gal] | 6.36 µM | 6.06 µM | 4.35 µM | 8.18 µM
CC(=O)N[C@H]1[C@H](O[C@H]2[C@@H](O)[C@@H](CO)OC(O)[C@@H]2O)O[C@H](CO)[C@@H](O[C@@H]2O[C@H](CO)[C@H](O)[C@H](O)[C@H]2O)[C@@H]1O[C@@H]1O[C@@H](C)[C@@H](O)[C@@H](O)[C@@H]1O (stereo partly drawn) [LeX, lewis X tetrasaccharide, Galβ1–4[Fucα1–3]GlcNAcβ1–3Gal] | 32.5 µM | 52.4 µM | 52.1 µM | 67.8 µM
